ChEMBL document CHEMBL4680126, “Indazolyl-substituted piperidin-4-yl-aminopyrimidines as HIV-1 NNRTIs: Design, synthesis and biological activities” (Eur J Med Chem, 2020)
pEC50: −log10 of the molar value.

Key:
[1] = test system: Human immunodeficiency virus 1; assay: Antiviral activity against HIV-1 E138K mutant strain infected in human MT4 cells assessed as reduction in virus-induced cytopathogenicity by MTT assay; assay type: functional, organism-based; settings: Human immunodeficiency virus 1, MT4
[2] = test system: Human immunodeficiency virus 1; assay: Antiviral activity against HIV-1 Y181C mutant strain infected in human MT4 cells assessed as reduction in virus-induced cytopathogenicity by MTT assay; assay type: functional, organism-based; settings: Human immunodeficiency virus 1, MT4
[3] = test system: Human immunodeficiency virus 1; assay: Antiviral activity against wild type HIV-1 strain 3B infected in human MT4 cells assessed as reduction in virus-induced cytopathogenicity by MTT assay; assay type: functional, organism-based; settings: Human immunodeficiency virus 1, 3B
[4] = test system: Human immunodeficiency virus 1; assay: Antiviral activity against HIV-1 K103N mutant strain infected in human MT4 cells assessed as reduction in virus-induced cytopathogenicity by MTT assay; assay type: functional, organism-based; settings: Human immunodeficiency virus 1, MT4
[5] = Cytotoxicity against human MT4 cells assessed as inhibition of cell viability by measuring reduction in absorbance at OD540 by MTT assay; assay type: cell-based
[6] = test system: Human immunodeficiency virus 1; assay: Antiviral activity against HIV-1 RES056 mutant strain infected in human MT4 cells assessed as reduction in virus-induced cytopathogenicity by MTT assay; assay type: functional, organism-based; settings: Human immunodeficiency virus 1, MT4
[7] = test system: Human immunodeficiency virus 2; assay: Antiviral activity against HIV-2 ROD strain infected in human MT4 cells assessed as reduction in virus-induced cytopathogenicity by MTT assay; settings: Human immunodeficiency virus 2, ISOLATE ROD
[8] = Selectivity index, ratio of CC50 for cytotoxicity against human MT4 cells reduction in cell viability by MTT assay to EC50 for antiviral activity against wild type HIV-1 strain IIIB infected in human MT4 cells assessed as reduction in virus-induced cytopathogenicity by MTT assay; assay type: toxicity, cell-based; settings: read-out: Selectivity Index

Row | SMILES | pEC50 [1] | pEC50 [2] | pEC50 [3] | pEC50 [4] | CC50 [5] [µM] | pEC50 [6] | pEC50 [7] | selectivity ratio [8]
1 | Cc1cc(C#N)cc(C)c1Oc1ccnc(NC2CCN(Cc3n[nH]c4ccccc34)CC2)n1 | 7.24 | 6.96 | 8.19 | 7.11 | 16 | 5.06 | < 4.80 | 2500
2 | N#Cc1cccc(Oc2ccnc(NC3CCN(Cc4n[nH]c5ccccc45)CC3)n2)c1 | < 4.49 | < 4.49 | 5.82 | < 4.49 | 32 | < 4.49 | < 4.49 | 21
3 | Clc1ccccc1Oc1ccnc(NC2CCN(Cc3n[nH]c4ccccc34)CC2)n1 | 6.10 | 5.80 | 7.43 | < 5.27 | 5.4 | < 5.27 | < 5.27 | 146
4 | Clc1cccc(Oc2ccnc(NC3CCN(Cc4n[nH]c5ccccc45)CC3)n2)c1 | 5.33 | 5.05 | 6.55 | 5.01 | 26 | < 4.59 | < 4.59 | 93
5 | Brc1ccc(Oc2ccnc(NC3CCN(Cc4n[nH]c5ccccc45)CC3)n2)cc1 | 5.70 | 5.12 | 6.68 | 5.24 | 24 | < 4.62 | < 4.62 | 114
6 | Cc1ccc(Oc2ccnc(NC3CCN(Cc4n[nH]c5ccccc45)CC3)n2)cc1 | 6.11 | 5.37 | 6.85 | 5.42 | 32 | < 4.49 | < 4.49 | 229
7 | Cc1cccc(Oc2ccnc(NC3CCN(Cc4n[nH]c5ccccc45)CC3)n2)c1 | 5.40 | < 4.96 | 6.41 | 5.02 | 32 | < 4.49 | < 4.49 | 82
8 | N#Cc1cc(Cl)cc(Oc2ccnc(NC3CCN(Cc4n[nH]c5ccccc45)CC3)n2)c1 | < 4.57 | < 4.57 | 5.64 | < 4.57 | 27 | < 4.57 | < 4.57 | 12
9 | FC(F)(F)c1ccccc1Oc1ccnc(NC2CCN(Cc3n[nH]c4ccccc34)CC2)n1 | 5.36 | 5.17 | 6.52 | 5.08 | 15 | < 4.82 | < 4.82 | 50
10 | Clc1ccc(Oc2ccnc(NC3CCN(Cc4n[nH]c5ccccc45)CC3)n2)cc1 | 5.64 | 5.25 | 6.64 | 5.40 | 30 | < 4.52 | < 4.52 | 130
11 | Cc1cccc(C)c1Oc1ccnc(NC2CCN(Cc3n[nH]c4ccccc34)CC2)n1 | 7.08 | 6.40 | 8.07 | 6.66 | 18 | < 4.74 | < 4.74 | 2090
12 | Brc1cccc(Oc2ccnc(NC3CCN(Cc4n[nH]c5ccccc45)CC3)n2)c1 | 5.46 | 5.21 | 6.60 | 5.31 | 22 | < 4.66 | < 4.66 | 88
13 | Cc1cc(Oc2ccnc(NC3CCN(Cc4n[nH]c5ccccc45)CC3)n2)cc(C)c1Cl | 5.33 | 5.06 | 6.43 | 5.09 | 15 | < 4.82 | < 4.82 | 41
14 | N#Cc1ccc(Oc2ccnc(NC3CCN(Cc4n[nH]c5ccccc45)CC3)n2)cc1 | 5.85 | 5.50 | 7.11 | 5.59 | 31 | < 4.51 | < 4.51 | 397
15 | FC(F)(F)c1cccc(Oc2ccnc(NC3CCN(Cc4n[nH]c5ccccc45)CC3)n2)c1 | 5.15 | 5.01 | 6.26 | 5.05 | 22 | < 4.66 | < 4.66 | 40
16 | Brc1ccccc1Oc1ccnc(NC2CCN(Cc3n[nH]c4ccccc34)CC2)n1 | 6.32 | 6.00 | 7.51 | 5.72 | 5.3 | < 5.28 | < 5.28 | 171
17 | FC(F)(F)c1ccc(Oc2ccnc(NC3CCN(Cc4n[nH]c5ccccc45)CC3)n2)cc1 | 5.32 | < 4.54 | 6.33 | 5.00 | 29 | < 4.54 | < 4.54 | 62
18 | O=C1Nc2ccc(Cl)cc2[C@@](C#CC2CC2)(C(F)(F)F)O1 [EFAVIRENZ] | 8.36 | – | 8.59 | 7.12 | > 6.3 | 6.62 | – | > 2420
19 | Cc1cc(C#N)cc(C)c1Oc1nc(Nc2ccc(C#N)cc2)nc(N)c1Br [ETRAVIRINE] | – | – | – | – | > 87 | – | – | > 28
20 | Nc1ccn([C@@H]2CS[C@H](CO)O2)c(=O)n1 [LAMIVUDINE] | 7.72 | 7.92 | 7.74 | 7.72 | > 7.5 | 7.55 | 7.68 | > 417
21 | Cc1ccnc2c1NC(=O)c1cccnc1N2C1CC1 [NEVIRAPINE] | 8.17 | 7.85 | 8.49 | 8.49 | > 4.6 | 7.47 | – | > 1440
22 | Cc1cn([C@H]2C[C@H](N=[N+]=[N-])[C@@H](CO)O2)c(=O)[nH]c1=O [ZIDOVUDINE] | 6.80 | – | – | – | > 15 | – | – | > 100
